We go through 10 compounds from US8277807B2, “Pharmaceutical combinations” (Astex Therapeutics Limited, priority 2006, dated 2012).

SMILES strings stand for the structures. pIC50, pKd: −log10 of the molar value. Structures can show the parent of a compound that is named as a salt. Where only a bound is given, the exact number is not on record here.

A short description of data set [1]: Salt properties of the L-lactate of compound (1). It is filed as physicochemical.
The next data set deals with HCT116 cell line. The experiment in a line: Anti-proliferative activity, Alamar Blue assay. It is filed as cell-based. The conditions noted are these: Homo sapiens, HCT-116, 72 h, read-out: IC50 value against the HCT116 cell line. On the procedure:
The anti-proliferative activities of compounds for use in the combinations of the invention can be determined by measuring the ability of the compounds to inhibition of cell growth in a number of cell lines such as the human colon cancer cell line HCT116. […] The method is based on the ability of viable cells to reduce resazurin to its fluorescent product resorufin. […] The number of viable cells is determined by Alamar Blue assay as before. Cell lines can be obtained from the ECACC (European Collection of cell Cultures).
(In general: Alamar Blue is a resazurin reagent that responds to reducing activity.)

Data set [2] has as its target T1, Human Hsp90α N-terminal domain (Homo sapiens, UniProt P07900).
T1 construct: Cloning, expression, and purification of the Human Hsp90α N-terminal domain were performed according to published methods; made in house
Kind of data set: Isothermal titration calorimetry (ITC) binding to Hsp90. Conditions: 25 mM Tris, 100 mM NaCl, 1 mM MgCl2, 1 mM TCEP, 5% DMSO, pH 7.4. The protocol: The ability of the compounds for use in the combinations of the invention to bind to human Hsp90 proteins was determined using isothermal titration calorimetry.
Isothermal titration calorimetry (ITC) experiments were performed with a VP-ITC titration calorimeter (Microcal Inc., Northampton, Mass., USA). […] All solutions were filtered and degassed prior to a titration being carried out. The enthalpy change resulting from each injection of ligand was obtained through integration of the calorimetric signal. Data were analysed using Origin 7.0 (Microcal Software Inc., Northampton, Mass.). Heats of dilution were estimated using the final injections of each individual titration and subtracted before data fitting. Different ITC experimental formats were employed in order to obtain compound dissociation constants (Kd's) over a wide range of affinities. […] In this type of experiment the stoichiometry parameter (N) was locked at 1 for data fitting.
(In general: Isothermal titration calorimetry measures the heat released or taken up as one component is titrated into another.)

The nature of data set [3]: Solid-state stability of L-lactate crystal forms (XRPD). Format: physicochemical. The conditions noted are these: in air; 40° C. and 75% RH where stated. The text has this:
Samples for X-ray powder diffraction (XRPD) data collection were gently ground by marble mortar and loaded into a crystallographic capillary (from Hampton Research, Quartz or Glass Type 10, 0.4 or 0.7 mm diameter). Diffraction patterns were collected at room temperature using CuKα radiation (λ=1.5418 Å) from a Rigaku rotating anode RU3HR, Osmic blue confocal optics, ¼ c goniometer and a Rigaku HTC image plate detector. 2D Images were collected while spinning φ axis with a detector to crystal distance of 250 mm. Data collection was controlled by CrystalClear software and 2D images were converted to 1D plot (20 vs. Intensity) by Datasqueeze (intensity averaged over the azimuthal angle 0<χ<360° for 2θ range 3-30° in 0.02° steps). In house program AstexXRPD was used for manipulation and visualisation of 1D XRPD patterns.

Another data set deals with OVCAR-3 tumour cells. The conditions noted are these: concentrations of 50 and 100 microM; PKB amplified; cited from earlier work.
A further data set deals with PKA. The conditions noted are these: data published 2002; read-out: IC50, inhibition of PKA; cited from earlier work.
A further data set has as its system PKC. Conditions: data published 2002; read-out: IC50, inhibition of PKC; cited from earlier work.
The next data set deals with PKG. Conditions: data published 2002; read-out: IC50, inhibition of PKG; cited from earlier work.
The next data set relates to APL patients. The conditions noted are these: in vivo; cited from earlier work.
The test system of data set [4] is P-glycoprotein-overexpressing subline of CCRF-CEM. Conditions: subline of leukemic cell line CCRF-CEM; Chou et al. 1998; read-out: IC50 against P-glycoprotein-overexpressing subline; cited from earlier work.

In general, pIC50 refers to −log10 of the IC50, conventionally taken in molar units. One may read the pKd as the Kd on a negative log10 scale, so that one unit is a factor of ten.

On to `CC(C)c1cc(C(=O)N2Cc3ccc(CN4CCN(C)CC4)cc3C2)c(O)cc1O.C[C@H](O)C(=O)O` [(2,4-dihydroxy-5-isopropyl-phenyl)-[5-(4-methyl-piperazin-1-ylmethyl)-1,3-dihydro-isoindol-2-yl]-methanone L-lactate salt], for which the hygroscopicity result in [1] is recorded as “non-hygroscopic”. The rate of solubility result in [1] (compared with free base and hydrochloric and sulphuric acid salts) was “better rate of solubility than the free base and other salts tested”. For the compound `CC(C)c1cc(C(=O)N2Cc3ccccc3C2)c(O)cc1O` [Example 5, (1,3-Dihydro-1H-isoindol-2-yl)-(2,4-dihydroxy-5-isopropyl-phenyl)-methanone], the pIC50 with HCT116 cell line is above 6.00. As to `CC(C)c1cc(C(=O)N2Cc3ccc(C(=O)N4CCNCC4)cc3C2)c(O)cc1O` [Example 54, (2,4-dihydroxy-5-isopropyl-phenyl)-[5-(piperazine-1-carbonyl)-1,3-dihydro-isoindol-2-yl]-methanone hydrochloride], the pIC50 with HCT116 cell line was above 6.00. As to `CC(C)c1cc(C(=O)N2Cc3ccc(CN4CCN(C)CC4)cc3C2)c(O)cc1O` [Example 55, (2,4-dihydroxy-5-isopropyl-phenyl)-[5-(4-methyl-piperazin-1-ylmethyl)-1,3-dihydro-isoindol-2-yl]-methanone], in data set [2], the pKd is above 7.00. With `CC(C)c1cc(C(=O)N2Cc3ccc(CN4CCN(C)CC4)cc3C2)c(O)cc1O.C[C@H](O)C(=O)O` [Form FL1, (2,4-dihydroxy-5-isopropyl-phenyl)-[5-(4-methyl-piperazin-1-ylmethyl)-1,3-dihydro-isoindol-2-yl]-methanone L-lactate], in [3], the “stability of crystal form” value was “stable in air and at 40 °C and 75% RH for at least one month”. The same measure, in the same setting: under `CC(C)c1cc(C(=O)N2Cc3ccc(CN4CCN(C)CC4)cc3C2)c(O)cc1O.C[C@H](O)C(=O)O` [Form FL3, (2,4-dihydroxy-5-isopropyl-phenyl)-[5-(4-methyl-piperazin-1-ylmethyl)-1,3-dihydro-isoindol-2-yl]-methanone L-lactate] stands “transforms in air into form FL1”. Regarding `O=S(=O)(NCCNCC=C(c1ccccc1)c1ccccc1)c1cccc2cnccc12` [NL-71-101], in the data set with OVCAR-3 tumour cells, the “Apoptosis in OVCAR-3 tumour cells” value is reported as “induced apoptosis”. In addition, the pIC50 in the data set with PKA is 5.05; with PKC it was 3.98; in the data set with PKG it was 4.44. `CC1=C(/C=C/C(C)=C/C=C/C(C)=C/C(=O)O)C(C)(C)CCC1` [Tretinoin, all-trans retinoic acid]: the “remissions in APL patients” value with APL patients was 64-100%.

On to `C/C1=C/C[C@@H](/C(C)=C/c2csc(C)n2)OC(=O)C[C@H](O)C(C)(C)C(=O)[C@H](C)[C@@H](O)[C@@H](C)CCC1` [desoxyepothilone B], for which the pIC50 in data set [4] is 7.77. As to `CC(C)c1cc(C(=O)N2Cc3ccc(CN4CCN(C)CC4)cc3C2)c(O)cc1O.C[C@H](O)C(=O)O` [form FL2, (2,4-dihydroxy-5-isopropyl-phenyl)-[5-(4-methyl-piperazin-1-ylmethyl)-1,3-dihydro-isoindol-2-yl]-methanone L-lactate], the “stability of crystal form” value in [3] is listed as “stable in air”.
